{
  "source": "patent US7125984B2",
  "about": "“Glucuronofucan sulfate” (Takara Bio Inc., priority 2000, dated 2006)",
  "key": {"α-D-glucuronidase": {"system": "α-D-glucuronidase", "experiment": "effect of calcium salt, protein and sodium chloride on the enzymatic reaction of α-D-glucuronidase", "assay_type": "biochemical, Fucophilus fucoidanolyticus strain SI-1234", "settings": "for activation of α-D-glucuronidase (relative activity versus concentration in the reaction system): result in words", "from_the_text": "(§1) Then, the relationship between the relative activity of the α-D-glucuronidase or the endo-α-L-fucosidase of the present invention and the concentration of calcium chloride contained in the reaction system was examined.\n(§2) Then, the relationship between the relative activity of the α-D-glucuronidase or the endo-α-L-fucosidase of the present invention and the concentration of bovine serum albumin contained in the reaction system was examined.\n(§3) Then, the relationship between the relative activity of the α-D-glucuronidase or the endo-α-L-fucosidase of the present invention and the concentration of sodium chloride contained in the reaction system was examined."}, "endo-α-L-fucosidase": {"system": "endo-α-L-fucosidase", "experiment": "effect of calcium salt, protein and sodium chloride on the enzymatic reaction of endo-α-L-fucosidase", "assay_type": "biochemical, Fucophilus fucoidanolyticus strain SI-1234", "settings": "for activation of endo-α-L-fucosidase (relative activity versus concentration in the reaction system): result in words", "from_the_text": "as §1, §2, §3"}, "[1]": {"settings": "oligosaccharide having a low molecular weight as substrate"}, "[2]": {"settings": "sulfated glucuronofucan having a high molecular weight as substrate"}},
  "data": [
    {"compound": "[Ca+2].[Cl-].[Cl-]", "note": "[calcium chloride]", "values": [
      {"measurement": "activation of α-D-glucuronidase (relative activity versus concentration in the reaction system)", "setting": "α-D-glucuronidase", "result": "activated"},
      {"measurement": "activation of endo-α-L-fucosidase (relative activity versus concentration in the reaction system)", "setting": "endo-α-L-fucosidase", "result": "activated"}
    ]},
    {"compound": "[Cl-].[Na+]", "note": "[sodium chloride]", "values": [
      {"measurement": "activation of α-D-glucuronidase", "setting": "α-D-glucuronidase; [1]", "result": "not activated"},
      {"measurement": "activation of α-D-glucuronidase", "setting": "α-D-glucuronidase; [2]", "result": "activates"},
      {"measurement": "activation of endo-α-L-fucosidase", "setting": "endo-α-L-fucosidase; [1]", "result": "not activated"},
      {"measurement": "activation of endo-α-L-fucosidase", "setting": "endo-α-L-fucosidase; [2]", "result": "activates"}
    ]},
    {"compound": "bovine serum albumin: protein added to the reaction system as enzyme activator", "values": [
      {"measurement": "activation of α-D-glucuronidase (relative activity versus concentration in the reaction system)", "setting": "α-D-glucuronidase", "result": "activated"},
      {"measurement": "activation of endo-α-L-fucosidase (relative activity versus concentration in the reaction system)", "setting": "endo-α-L-fucosidase", "result": "activated"}
    ]}
  ]
}
